The record followed here is patent US20180186755A1, “LYSYL OXIDASE-LIKE 2 INHIBITORS AND USES THEREOF” (PharmAkea, Inc., priority 2015, published 2018).

Molecules are shown by their SMILES. Structures can show the parent of a compound that is named as a salt.

In this test the target is T1, human LOXL2 (Homo sapiens, UniProt Q9Y4K0).
T1 construct: expressed in transfected cells; 10-20x concentrated conditioned media used as the enzyme source
T1 sequence (Q9Y4K0 26-774): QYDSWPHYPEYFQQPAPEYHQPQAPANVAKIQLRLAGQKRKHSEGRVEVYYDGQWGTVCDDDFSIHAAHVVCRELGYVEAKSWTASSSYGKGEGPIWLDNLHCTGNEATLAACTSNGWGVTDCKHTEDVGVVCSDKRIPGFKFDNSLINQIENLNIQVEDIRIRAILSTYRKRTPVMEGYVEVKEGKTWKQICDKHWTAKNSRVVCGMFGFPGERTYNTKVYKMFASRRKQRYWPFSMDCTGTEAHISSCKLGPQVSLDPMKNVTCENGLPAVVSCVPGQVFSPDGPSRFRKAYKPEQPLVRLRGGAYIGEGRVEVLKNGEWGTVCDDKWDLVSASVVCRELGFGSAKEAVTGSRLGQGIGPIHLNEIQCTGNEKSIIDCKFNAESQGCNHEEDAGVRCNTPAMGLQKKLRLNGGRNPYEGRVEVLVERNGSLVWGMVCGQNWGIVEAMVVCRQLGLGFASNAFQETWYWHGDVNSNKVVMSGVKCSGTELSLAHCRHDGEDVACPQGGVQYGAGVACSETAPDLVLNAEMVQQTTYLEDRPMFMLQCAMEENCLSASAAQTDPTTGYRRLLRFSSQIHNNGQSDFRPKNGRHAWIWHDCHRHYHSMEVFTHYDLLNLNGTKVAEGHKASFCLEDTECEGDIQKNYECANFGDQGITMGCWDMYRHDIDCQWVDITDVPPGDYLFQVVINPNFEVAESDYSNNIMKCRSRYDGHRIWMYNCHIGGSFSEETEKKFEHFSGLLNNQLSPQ
Briefly: Human LOXL2 amine oxidase activity assay (Amplex Red fluorescence). The test is classed as biochemical. The following applies: concentrated conditioned media from CHO cells stably expressing human LOXL2; 2 h at 37° C. preincubation; DAP substrate. The protocol: Example B-1: Human LOXL2 Amine Oxidase Activity Assay
LOXL2 amine oxidase activity is evaluated by measuring Amplex Red fluorescence using 10-20× concentrated conditioned media from CHO cells stably expressing human LOXL2.
To assay for amine oxidase activity, 10 μL of the concentrated conditioned media is incubated with 2 μL of test compound in DMSO and 73 μL Assay Buffer (50 mM Borate Buffer, pH8) for 2 h at 37° C. After the 2 h incubation, 5 ul of 10 mM 1,5-Diaminopentane (DAP) diluted in Assay Buffer and 10 μl of Amplex Red Mix (8.5 μl Assay Buffer+0.5 μl of 10 mM Amplex Red+1 μl of 500 U/ml Horseradish Peroxidase) are added and the plate mixed and immediately placed on the FlexStaion for fluorescence measurements. Fluorescence is read in kinetic mode every 2 min for 1 hour at excitation=544 and emission=590. The amine oxidase activity is calculated from the slope of the linear portion of the curve.
By IC50 is commonly meant the concentration at which inhibition is half-maximal. As to `NCc1cc(Oc2cccc(C(=O)N3C[C@@H](O)[C@H](F)C3)c2)ncn1` (racemic) [Compound 1-11, Racemic-trans-(3-((6-(aminomethyl)pyrimidin-4-yl)oxy)phenyl)(3-fluoro-4-hydroxypyrrolidin-1-yl)methanone hydrochloride], the IC50 is < 100 nM.

In the case of `NCc1cc(OCc2cccc(C(=O)N3CCCC(O)(C(F)(F)F)C3)c2)ncn1` (racemic) [Compound 1-35, Racemic-(3-(((6-(aminomethyl)pyrimidin-4-yl)oxy)methyl)phenyl)(3-hydroxy-3-(trifluoromethyl)piperidin-1-yl)methanone], the IC50 is < 100 nM.

`CN1CC(CNC(=O)c2cccc(COc3cc(CN)ncn3)c2)OC1=O` (racemic) [Compound 1-36, Racemic-3-(((6-(aminomethyl)pyrimidin-4-yl)oxy)methyl)-N-((3-methyl-2-oxooxazolidin-5-yl)methyl)benzamide]: the IC50 is < 100 nM.

Turning to `CC(Oc1cc(CN)ncn1)c1cccc(C(=O)Nc2ccccc2)c1` (racemic) [Compound 1-95, Racemic-3-(1-((6-(aminomethyl)pyrimidin-4-yl)oxy)ethyl)-N-phenylbenzamide], the IC50 fell in the range of 100 to 1000 nM.

Consider `NCc1cc(Oc2ccc(F)cc2)ncn1` [Compound 1-1, (6-(4-Fluorophenoxy)pyrimidin-4-yl)methanamine trifluoroacetate], for which the IC50 was < 100 nM.

`NCc1cc(Oc2cccc(Oc3ccccc3)c2)ncn1` [Compound 1-2, (6-(3-Phenoxyphenoxy)pyrimidin-4-yl)methanamine hydrochloride]: the IC50 was < 100 nM.

In the case of `NCc1cc(Oc2cccc(C(=O)Nc3ccccc3)c2)ncn1` [Compound 1-3, 3-((6-(Aminomethyl)pyrimidin-4-yl)oxy)-N-phenylbenzamide hydrochloride], the IC50 was < 100 nM.

Turning to `NCc1cc(Oc2cccc(C(=O)Nc3ccc(C(=O)O)cc3)c2)ncn1` [Compound 1-4, 4-(3-((6-(Aminomethyl)pyrimidin-4-yl)oxy)benzamido)benzoic acid hydrochloride], the IC50 was < 100 nM.

As for `NCc1cc(Oc2cccc(C(=O)NCc3ccc(C(=O)O)cc3)c2)ncn1` [Compound 1-5, 4-((3-((6-(Aminomethyl)pyrimidin-4-yl)oxy)benzamido)methyl)benzoic Acid Hydrochloride], the half-maximal inhibitory concentration (IC50) is < 100 nM.

In the case of `NCc1cc(Oc2cccc(C(=O)NCc3cc4ccccc4s3)c2)ncn1` [Compound 1-6, 3-((6-(Aminomethyl)pyrimidin-4-yl)oxy)-N-(benzo[b]thiophen-2-ylmethyl)benzamide hydrochloride], the IC50 is < 100 nM.

On to `NCc1cc(Oc2cccc(C(=O)NCCC(=O)O)c2)ncn1` [Compound 1-7, 3-(3-((6-(Aminomethyl)pyrimidin-4-yl)oxy)benzamido)propanoic Acid Hydrochloride], for which the IC50 was in the range of 100 to 1000 nM.

With `NCc1cc(Oc2cccc(C(=O)NCCCC(=O)O)c2)ncn1` [Compound 1-8, 4-(3-((6-(Aminomethyl)pyrimidin-4-yl)oxy)benzamido)butanoic Acid Hydrochloride], the IC50 lay within 100 to 1000 nM.

With `NCc1cc(Oc2cccc(C(=O)NCCO)c2)ncn1` [Compound 1-9, 3-((6-(Aminomethyl)pyrimidin-4-yl)oxy)-N-(2-hydroxyethyl)benzamide hydrochloride], the IC50 was < 100 nM.

Take `NCc1cc(Oc2cccc(C(=O)N3CC[C@H](O)C3)c2)ncn1` [Compound 1-10, (S)-(3-((6-(Aminomethyl)pyrimidin-4-yl)oxy)phenyl)(3-hydroxypyrrolidin-1-yl)methanone hydrochloride]: the IC50 is < 100 nM.

As for `CS(=O)(=O)CCNC(=O)c1cccc(Oc2cc(CN)ncn2)c1` [Compound 1-12, 3-((6-(Aminomethyl)pyrimidin-4-yl)oxy)-N-(2-(methylsulfonyl)ethyl)benzamide hydrochloride], the half-maximal inhibitory concentration (IC50) is < 100 nM.

Consider `NCc1cc(Oc2cccc(C(=O)NCCS(N)(=O)=O)c2)ncn1` [Compound 1-13, 3-((6-(Aminomethyl)pyrimidin-4-yl)oxy)-N-(2-sulfamoylethyl)benzamide hydrochloride], for which the IC50 was < 100 nM.

In the case of `NCc1cc(Oc2cccc3c2CCC(=O)N3CC(=O)O)ncn1` [Compound 1-14, 2-(5-((6-(Aminomethyl)pyrimidin-4-yl)oxy)-2-oxo-3,4-dihydroquinolin-1(2H)-yl)acetic Acid Hydrochloride], the IC50 was in the range of 100 to 1000 nM.

Regarding `NCc1cc(Oc2cccc3c2CCC(=O)N3CCO)ncn1` [Compound 1-15, (5-((6-(Aminomethyl)pyrimidin-4-yl)oxy)-1-(2-hydroxyethyl)-3,4-dihydroquinolin-2(1H)-one hydrochloride], the IC50 is < 100 nM.

For the compound `COc1ccc(CN2C(=O)CCc3c(Oc4cc(CN)ncn4)cccc32)cn1` [Compound 1-16, 5-((6-(Aminomethyl)pyrimidin-4-yl)oxy)-1-((6-methoxypyridin-3-yl)methyl)-3,4-dihydroquinolin-2(1H)-one acetate], the IC50 was < 100 nM.

Regarding `NCc1cc(Oc2ccc3cc[nH]c3c2)ncn1` [Compound 1-17, (6-((1H-Indol-6-yl)oxy)pyrimidin-4-yl)methanamine], the IC50 was < 100 nM.

Take `NCc1cc(Oc2ccc3[nH]ccc3c2)ncn1` [Compound 1-18, (6-((1H-Indol-5-yl)oxy)pyrimidin-4-yl)methanamine trifluoroacetate]: the IC50 is < 100 nM.

With `NCc1cc(Oc2cccc3[nH]ccc23)ncn1` [Compound 1-19, (6-((1H-Indol-4-yl)oxy)pyrimidin-4-yl)methanamine], the IC50 is < 100 nM.

With `CCn1ccc2c(Oc3cc(CN)ncn3)cccc21` [Compound 1-20, (6-((1-Ethyl-1H-indol-4-yl)oxy)pyrimidin-4-yl)methanamine], the IC50 is < 100 nM.

As to `COC(=O)Cn1ccc2c(Oc3cc(CN)ncn3)cccc21` [Compound 1-21, Methyl 2-(4-((6-(aminomethyl)pyrimidin-4-yl)oxy)-1H-indol-1-yl)acetate], the IC50 was < 100 nM.

As to `NCc1cc(Oc2cccc3c2ccn3CC(=O)O)ncn1` [Compound 1-22, 2-(4-((6-(Aminomethyl)pyrimidin-4-yl)oxy)-1H-indol-1-yl)acetic acid], the IC50 is < 100 nM.

In turn, `NCc1cc(Oc2cccc3c2ccn3CC(=O)N2CCCCC2)ncn1` [Compound 1-23, 2-(4-((6-(Aminomethyl)pyrimidin-4-yl)oxy)-1H-indol-1-yl)-1-(piperidin-1-yl)ethan-1-one] gave an IC50 of 100 to 1000 nM.

In the case of `CN(C(=O)Cn1ccc2c(Oc3cc(CN)ncn3)cccc21)c1ccccc1` [Compound 1-24, 2-(4-((6-(Aminomethyl)pyrimidin-4-yl)oxy)-1H-indol-1-yl)-N-methyl-N-phenylacetamide], the IC50 was < 100 nM.

As for `CS(=O)(=O)CCn1ccc2c(Oc3cc(CN)ncn3)cccc21` [Compound 1-25, (6-((1-(2-(Methylsulfonyl)ethyl)-1H-indol-4-yl)oxy)pyrimidin-4-yl)methanamine], the IC50 is < 100 nM.

Consider `NCc1cc(Oc2cccc3c2ccn3Cc2ccccc2)ncn1` [Compound 1-26, (6-((1-Benzyl-1H-indol-4-yl)oxy)pyrimidin-4-yl)methanamine], for which the IC50 was < 100 nM.

In the case of `COC(=O)c1cccc(Cn2ccc3c(Oc4cc(CN)ncn4)cccc32)c1` [Compound 1-27, Methyl 3-((4-((6-(aminomethyl)pyrimidin-4-yl)oxy)-1H-indol-1-yl)methyl)benzoate], the IC50 is < 100 nM.

Take `NCc1cc(Oc2cccc3c2ccn3Cc2cccc(C(=O)O)c2)ncn1` [Compound 1-28, 3-((4-((6-(Aminomethyl)pyrimidin-4-yl)oxy)-1H-indol-1-yl)methyl)benzoic acid]: the IC50 was < 100 nM.

Consider `COc1ccc(Cn2ccc3cc(Oc4cc(CN)ncn4)ccc32)cn1` [Compound 1-29, (6-((1-((6-Methoxypyridin-3-yl)methyl)-1H-indol-5-yl)oxy)pyrimidin-4-yl)methanamine], for which the IC50 was < 100 nM.

As for `COc1ccc(Cn2c(C)cc3c(Oc4cc(CN)ncn4)cccc32)cn1` [Compound 1-30, (6-((1-((6-Methoxypyridin-3-yl)methyl)-2-methyl-1H-indol-4-yl)oxy)pyrimidin-4-yl)methanamine], the IC50 is < 100 nM.

As to `COc1ccc(Cn2cc(C)c3c(Oc4cc(CN)ncn4)cccc32)cn1` [Compound 1-31, (6-((1-((6-Methoxypyridin-3-yl)methyl)-3-methyl-1H-indol-4-yl)oxy)pyrimidin-4-yl)methanamine], the IC50 was < 100 nM.
